In ChEMBL document CHEMBL5260832, “Hepatoprotective natural triterpenoids” (Eur J Med Chem, 2018):

Columns and labels:
Hepatocyte [1] = test: Hepatoprotective activity against D-GaIN/TNFalpha-induced cell death in mouse hepatocyte at 200 uM relative to control; type: functional
Hepatocyte [2] = test: Hepatoprotective activity against D-GaIN/TNFalpha-induced cell death in mouse hepatocyte at 100 uM relative to control; type: functional, cell-based; conditions: dose 100 µM
Hepatocyte [3] = test: Hepatoprotective activity against D-GaIN/TNFalpha-induced cell death in mouse hepatocyte at 25 uM relative to control; type: functional
Hepatocyte [4] = test: Hepatoprotective activity against D-GaIN/TNFalpha-induced cell death in mouse hepatocyte at 50 uM relative to control; type: functional
Mus musculus [5] = test: Hepatoprotective activity against D-GaIN/CCl4 induced liver injury mouse model assessed as reduction in GPT level at 1.0 microg/ml, iv relative to control; type: functional; parameters: scale not given: the % may be the effect or the level left; conditions: dose 1 µg/ml
L02 = test: Protection against D-GalN-induced cell damage in human L02 cells […] assessed as reduction in cell viability […]; type: functional, cell-based
[6] = Hepatoprotective activity against D-Galactosamine-induced toxicity in rat WB-F344 cells assessed as cell survival rate at 10 uM relative to control; type: functional
[7] = Hepatoprotective activity against D-GaIN - induced toxicity in rat WB-F344 cells assessed as inhibition of cell growth relative to control; type: functional; parameters: scale not given: the % may be the effect or the level left
[8] = Hepatotoxicity in rat assessed as reduction in GPT level at 0.01 mg/mL measured after 48 hrs (reference value: 291 IU/L); type: toxicity; conditions: in vivo
Hepatocyte [9] = test: Hepatoprotective activity against D-GaIN-induced toxicity in mouse hepatocyte relative to control; type: functional, cell-based
Mus musculus [10] = test: Hepatoprotective activity in mouse model of D-GaIN/LPS-induced liver injury assessed as inhibition of sAST secretion at 100 mg/kg, po relative to control; type: functional
Mus musculus [11] = test: Hepatoprotective activity in mouse model of D-GaIN/LPS-induced liver injury assessed as inhibition of sALT level secretion at 100 mg/kg, po relative to control; type: functional
Hepatocyte [12] = test: Hepatoprotective activity against D-GaIN/TNFalpha-induced cell death in mouse hepatocyte at 100 uM; type: functional, cell-based
Mus musculus [13] = test: Hepatoprotective activity against CCl4-induced liver injury mouse model assessed as reduction in ALT at 20 ug/mL, ip relative to control (reference value: 13.23 IU/L); type: functional; conditions: dose 20 µg/ml
Mus musculus [14] = test: Hepatoprotective activity against CCl4-induced liver injury mouse model assessed as reduction in AST at 20 ug/mL, ip relative to control (reference value: 9.27 IU/L); type: functional; conditions: dose 20 µg/ml
Mus musculus [15] = test: Hepatoprotective activity against CCl4-induced liver injury mouse model assessed as reduction in MDA level at 20 ug/mL, ip relative to control (reference value: 9.27 IU/L); type: functional; conditions: dose 20 µg/ml
Mus musculus [16] = test: Hepatoprotective activity against CCl4-induced liver injury mouse model assessed as increase in SOD level at 20 ug/mL, ip relative to control (reference value: 5.89 IU/L); type: functional; conditions: dose 20 µg/ml
Hepatocyte [17] = test: Hepatoprotective activity against D-GaIN/TNFalpha-induced cell death in mouse hepatocytes at 50 uM assessed as inhibition of cell death relative to control; type: functional; parameters: scale not given: the % may be the effect or the level left
Hepatocyte [18] = test: Hepatoprotective activity against CCL4-induced rat hepatocyte toxicity assessed as decrease in GOT level at 3.33 mg/mL preincubated for 30 mins followed by CCL4 addition and measured after 180 mins by colorimetric method; type: functional; conditions: time 210 min, 3.5 h
Hepatocyte [19] = test: Hepatoprotective activity against CCL4-induced rat hepatocyte toxicity assessed as decrease in GPT level at 3.33 mg/mL preincubated for 30 mins followed by CCL4 addition and measured after 180 mins by colorimetric method; type: functional; conditions: time 210 min, 3.5 h
Hepatocyte [20] = test: Hepatoprotective activity against CCL4-induced rat hepatocyte toxicity assessed as decrease in ALP level at 3.33 mg/mL preincubated for 30 mins followed by CCL4 addition and measured after 180 mins by colorimetric method; type: functional; conditions: time 210 min, 3.5 h

C[C@@]1(CO)CC[C@]2(C(=O)O[C@@H]3O[C@H](CO)[C@@H](O)[C@H](O)[C@H]3O)CC[C@]3(C)[C@H](C=C[C@@H]4[C@@]5(C)C[C@@H](O)[C@H](O)[C@@](C)(CO)[C@@H]5CC[C@]43C)[C@H]2C1
Activity (Hepatocyte [1]): 8%
Activity (Hepatocyte [2]): 8%
Activity (Hepatocyte [3]): 15.1%
Activity (Hepatocyte [4]): 8%

CC1(C)C[C@H]2C3=CC[C@@H]4[C@@]5(C)CCC(=O)C(C)(C)C5CC[C@@]4(C)[C@]3(C)CC[C@@]2(C(=O)O)CC1=O (some centres undefined)
Activity (Mus musculus [5]): 43%

CC(=O)O[C@H]1[C@@H]2O[C@@]3(C(C)(C)O)CC[C@](C)(O3)C2[C@@]2(CO)CC[C@@]34C[C@@]35CC[C@H](O[C@@H]3OC[C@@H](O)[C@H](O)[C@H]3O)C(C)(C)C5CC[C@H]4[C@]12C (some centres undefined)
EC50 (L02): 74.1 µM

CC1(C)CC[C@]2(C(=O)O[C@@H]3O[C@H](CO)[C@@H](O)[C@H](O)[C@H]3O[C@@H]3OC[C@@H](O)[C@H](O)[C@H]3O)CC[C@]3(C)C(=CC[C@@H]4[C@@]5(C)C[C@@H](O)[C@@H](O)C(C)(C)[C@@H]5CC[C@]43C)[C@@H]2[C@@H]1O
Activity [6]: 68%
Activity [7]: 68%

CC1(C)CC[C@]2(C(=O)O[C@@H]3O[C@H](CO)[C@@H](O)[C@H](O)[C@H]3O[C@@H]3OC[C@@H](O)[C@H](O)[C@H]3O)CC[C@]3(C)C(=CC[C@@H]4[C@@]5(C)C[C@@H](O)[C@@H](O)[C@@](C)(CO)[C@@H]5CC[C@]43C)[C@@H]2[C@@H]1O
Activity [6]: 64%
Activity [7]: 64%

C[C@@]1(CO)CC[C@]2(C(=O)O[C@@H]3O[C@H](CO[C@@H]4O[C@H](CO)[C@@H](O)[C@H](O)[C@H]4O)[C@@H](O)[C@H](O)[C@H]3O)CC[C@]3(C)C(=CC[C@@H]4[C@@]5(C)CC[C@H](O[C@@H]6O[C@H](CO)[C@@H](O)[C@H](O)[C@H]6O)[C@@](C)(C(=O)O)[C@@H]5CC[C@]43C)[C@@H]2C1
Activity [8]: 215 IU/L

C[C@@H]1CC[C@]2(C(=O)O[C@@H]3O[C@H](CO)[C@@H](O)[C@H](O)[C@H]3O)CC[C@]3(C)C(=CC[C@@H]4[C@@]5(C)C[C@@H](O)[C@H](O)C(C)(C)[C@@H]5CC[C@]43C)[C@@H]2[C@]1(C)O
IC50 (Hepatocyte [9]): 35.5 µM
inhibition in vivo at 100 mg/kg (Mus musculus [10]): 65.2%
inhibition in vivo at 100 mg/kg (Mus musculus [11]): 71.1%
IC50 (Hepatocyte [12]): 55.7 µM

C[C@@H]1CC[C@]2(C(=O)O[C@@H]3O[C@H](CO)[C@@H](O)[C@H](O)[C@H]3O)CC[C@]3(C)C(=CC[C@@H]4[C@@]5(C)C[C@@H](O)[C@@H](O)C(C)(C)[C@@H]5CC[C@]43C)[C@@H]2[C@]1(C)O
IC50 (Hepatocyte [9]): 14.1 µM
inhibition in vivo at 100 mg/kg (Mus musculus [10]): 59.7%
inhibition in vivo at 100 mg/kg (Mus musculus [11]): 57.2%

C[C@@H]1CC[C@]2(C(=O)O)CC[C@]3(C)C(=CC[C@@H]4[C@@]5(C)[C@H](O)[C@@H](O)[C@@H](O)C(C)(C)[C@@H]5CC[C@]43C)[C@@H]2[C@]1(C)O
Activity (Mus musculus [13]): 4.75 IU/L
Activity (Mus musculus [14]): 4.24 IU/L
Activity (Mus musculus [15]): 3.84 nmol/mL
Activity (Mus musculus [16]): 21.9 U/ml

CC1=C(C)[C@H]2C3=CC[C@@H]4[C@@]5(C)C[C@@H](O)[C@H](O)[C@@](C)(CO)[C@@H]5CC[C@@]4(C)[C@]3(C)CC[C@@]2(C(=O)O[C@@H]2O[C@H](CO)[C@@H](O)[C@H](O)[C@H]2O)CC1
IC50 (Hepatocyte [12]): 33.6 µM
Activity (Hepatocyte [17]): 8.3%

CC1(C)C[C@H]2C3=C[C@@H](O)[C@@H]4[C@@]5(C)CCC(=O)C(C)(C)C5CC[C@@]4(C)[C@]3(C)CC[C@@]2(C(=O)O)CC1=O (some centres undefined)
Activity (Mus musculus [5]): 24%

CC(=O)O[C@H]1CC[C@]2(C)[C@H]3CC=C4[C@@H]5CC(C)(C)CC[C@]5(C(=O)O)CC[C@@]4(C)[C@]3(C)CC[C@H]2C1(C)C [ACETYL OLEANOLIC ACID]
Activity (Hepatocyte [18]): 27.8 IU/L
Activity (Hepatocyte [19]): 17.5 IU/L
Activity (Hepatocyte [20]): 16.1 IU/L

CO[C@@H]1C=C2[C@@H]3CC(C)(C)C(=O)C[C@]3(C(=O)O)CC[C@@]2(C)[C@]2(C)CCC3C(C)(C)C(=O)CC[C@]3(C)[C@@H]12 (some centres undefined)
Activity (Mus musculus [5]): 48%
